Measured values from patent US5298502A, “Method and composition for photodynamic treatment and detection of tumors” (priority 1991, dated 1994).

Assays:
[1] = system: DBA/2 Ha mice with SMT-F subcutaneous tumors; test: Proto IX content of tissues of tumor-bearing mice fed the agent (Example 6); format: in vivo; details: for concentration of Proto IX in tissue, Adrenal / concentration of Proto IX in tissue, Intestine / concentration of Proto IX in tissue, Kidneys / concentration of Proto IX in tissue, Liver / concentration of Proto IX in tissue, Tumor / Proto IX Mean Cps per gram, Intestine: 2000 ppm in feed; for Proto IX Mean Cps per gram, Adrenal / Proto IX Mean Cps per gram, Kidneys / Proto IX Mean Cps per gram, Liver / Proto IX Mean Cps per gram, Tumor / Weight of Tumor as excised: 2000 ppm in feed Days 2-10, sacrificed Day 10 (6j Day 7); for Proto IX Mean Cps per gram, Intestine: samples diluted with 3 parts basic acetone to one part sample
Protocol: In this Example the enzyme-inhibiting agents were added to the feed of tumor-bearing mice; for some of the mice, used as a control, no agent was added to the feed. The mice were then sacrificed and their kidneys, intestines, adrenal glands, liver and tumor were removed and analyzed for their content of Proto IX. The following enzyme-inhibiting agents were employed: [drawing 10]
More particularly, the mice were DBA/2 Ha mice which had been injected with SMT-F subcutaneous tumors on Day 0 in the right shoulder. The mice, individually housed, received untreated Purina Rodent Chow 5001 Mash on Day 1; thereafter on Days 2 through 10 the mice received the same Mash treated with 2000 ppm of the inhibiting agent being tested (or, for the controls, the same untreated Mash). The treatment of the Mash was effected by blending it with a small amount of an acetone solution of the agent to be tested. The mice were then sacrificed on Day 10, except for the mouse treated with the agent designated as 6j; the latter was sacrificed on Day 7. The tissues were refrigerated at 4° C. overnight, then blotted dry, and the fresh weight of each tissue sample was recorded. The tissues were then homogenized in 5 mL, or lo mL in the cases of intestines and liver, of acetone-0.1 N NH4 OH (9:I, v/v). The homogenates were then centrifuged at 1500 g and the supernatants were analyzed on a SPEX FAII2 spectrofluorometer; excitation 400 nm, emission 630 nm wavelengths, the optima for Proto IX. Proto IX accumulation was determined as CPS (fluorescent counts per second emitted) per gram of tissue. The results are tabulated below (results are averages for two mice for each treatment, except for treatments with agents 6f, 6h, 6i and 6j in each of which only one mouse was treated): […]

HeLa cells [2] = test: Tetrapyrrole accumulation in treated HeLa cells (Example 1); format: cell-based, human; details: 3 days in the dark
Protocol: HeLa cells (a human tumor cell line commonly employed for tumor research and obtained from the American Type Culture Collection), in logarithmic growth phase (having been cultured at 37° C. for five days in one-liter Falcon tissue culture flasks), were washed in phosphate buffered saline (PBS). A 0.25% solution of trypsin in PBS (2 mL) was added, and, after several minutes, the cells were gently removed from the flask and placed into 110 mL of a 25 mM solution of Hepes in Minimum Essential Medium (MEM) supplemented with 10% v/v inactivated calf serum, 1.1 mL of a 200 mM solution of glutamine in 0.85% saline solution, and 11,000 units of penicillin/11,000 mcg streptomycin.
Then, 5.0 mL aliquots of the resulting resuspended cell culture were each placed into a 50 mL Falcon tissue culture flask and (except for the control) mixed with the treating agent. The aliquots were then incubated in the dark at 37° C. for three days. The cells were then removed and extracted under green light in the following manner:
Cells were removed from the bottom of the flask with the addition of 0.8 mL of a 0.25% solution of trypsin in PBS. After 1 hour of incubation in the dark, cells and medium were removed from the flasks, placed into round bottom centrifuge tubes, and then subjected to two rounds of freeze-thaw conditions to disrupt the cells and allow for extraction.
Ten mL of basic acetone (90% acetone:10% of 0.1 N NH4 OH) was then added to each tube, and the tubes were centrifuged to remove protein and cell debris. Five mL of water was added to the supernatant, followed by 0.5 mL of a saturated aqueous solution of NaCl. The pH was then adjusted to 6.8 by the dropwise addition of 2 M KH2 PO4. The aqueous acetone extract was then loaded onto a C8 Baker Prep column. The columns were dried and then washed with 2 mL of water. The tetrapyrroles were eluted with 2×1.5 mL volumes of 90/10 CH3 OH/H2 O. Extracts were then quantified on a spectrofluorometer.
Agent A was supplied as a filter-sterilized 250 mM solution in water, pH 6.5. Agents B, C, D, and E were supplied as 50 mM solutions in acetone. Acetone was also added to the control to provide a concentration of 0.2% v/v therein. The amounts of the agents added to the cell cultures were such as to give the concentrations specified in the Table 1 below. The amounts of the tetrapyrrole protoporphyrin IX ("Proto IX") produced are shown in that Table.

HeLa cells [3] = test: Growth inhibition and Proto IX accumulation in HeLa cells (Example 2); format: cell-based, human; details: 100 μM agent
Protocol: HeLa cells, in logarithmic growth phase having been cultured for 6 days in six one-liter Falcon tissue culture flasks at 37° C.), were washed in phosphate buffered saline (PBS). A 0.25% solution of trypsin in PBS was added, and, after several minutes, the cells were gently removed and placed into 110 mL of a 25 mM solution of Hepes in Minimum Essential Medium (MEM), supplemented with 10% v/v inactivated calf serum, 1.1 mL of a 200 mM solution of glutamine in 0.85% saline solution, and 11,000 units of penicillin/11,000 mcg streptomycin.
Aliquots (5.0 mL each) of the resuspended cell culture were placed into 50 mL Falcon tissue culture flasks, with or without herbicide, and incubated in the dark at 37° C. for 4 days, the herbicide being added in dilute acetone solution as in Example 1. Acetone was also added to the controls to provide a concentration of acetone of 0.2% v/v therein. The amount of herbicide was such as to provide the concentrations specified in Table 2 below.
Extraction: The media from each of the flasks were placed in glass round bottom tubes, while the cells adhering to the bottom of the flasks were loosened by the addition of 0.5 mL of a 0.25% solution of trypsin in PBS, and after several minutes at 37° C., then washed from the flasks and recombined with their media. Aliquots of 100 μL were then removed from each cell suspension to determine cell density. The remaining 5.4 mL of cell suspension was then sonified for 30 minutes to disrupt the cells.
Ten mL of basic acetone (90% acetone:10% 0.1 N NH4 OH) was then added to each tube, and the tubes were centrifuged to remove protein and cell debris. Five mL of water was added to the supernatant, followed by 0.5 mL of a saturated aqueous solution of NaCl. The pH was then adjusted to 6.8 by the dropwise addition of 2 M KH2 PO4. The aqueous acetone extract was then loaded onto a C8 Baker Prep column. The columns were dried and then washed with 2 mL of water. The tetrapyrroles were eluted with 3 mL of 90/10 CH3 OH/H2 O. As in Example 1, all these extraction procedures were carried out substantially entirely under non-protoporphrin IX-exciting light (e.g. green light) or in the dark (e.g. in opaque covered containers). The fluorescence of the extracts was then determined on a SPEX spectrofluorometer. Protoporphyrin IX ("Proto IX") accumulation was quantified utilizing predetermined extinction coefficients.

HeLa cells [4] = test: Proto IX in HeLa cells and culture medium, cell growth observations (Example 8); format: cell-based, human; details: 100 μM agent, compared to the control; for inhibition at 100 µM: Homo sapiens, HeLa, read-out: inhibiting effect on cell growth (rough observations)
Protocol: In a manner similar to Examples 1 and 2, cultures of HeLa cells were incubated in the presence of 100 μM of various treating agents, listed below. The agent was added in dilute solution in dimethylsulfoxide (DMSO),and the controls contained 0.2% DMSO v/v. After such incubation the culture medium was poured off, removing it from the cells, the cells were loosened from the culture flasks by addition of 0.25% W/v trypsin Which remained in contact With the cells for 20 minutes at 37° C., after which a fluorometric medium was added to the flask. The fluorometric medium was the same as that described in Example 7 except that its pH was 6.5; this medium also acted as an extractant. The resulting extract was analyzed for proto IX content. The separated culture medium was also analyzed fluorometrically for Proto IX content. The pairs of percentages given, next to each treating agent, indicate the amount of Proto IX produced in the presence of that treating agent relative to the amount produced by the control in the same experiment; the first number of each pair relates to the concentration of Proto IX in the culture medium and the second number relates to the concentration in the cells. [drawing 12]

CC(C)Oc1cc(-n2nc(C(C)(C)C)oc2=O)c(Cl)cc1Cl [Agent 6d]
concentration of Proto IX in tissue, Adrenal [1]: 4 ug of Proto IX per gram of tis | concentration of Proto IX in tissue, Intestine [1]: 51 ug of Proto IX per gram of tis | concentration of Proto IX in tissue, Kidneys [1]: 117 ug of Proto IX per gram of tis | concentration of Proto IX in tissue, Liver [1]: 14 ug of Proto IX per gram of tis | concentration of Proto IX in tissue, Tumor [1]: 18 ug of Proto IX per gram of tis | Proto IX Mean Cps per gram, Adrenal [1]: 443 Cps per gram × 10^3 | Proto IX Mean Cps per gram, Kidneys [1]: 12865 Cps per gram × 10^3 | Proto IX Mean Cps per gram, Liver [1]: 1581 Cps per gram × 10^3 | Proto IX Mean Cps per gram, Tumor [1]: 2006 Cps per gram × 10^3 | Weight of Tumor as excised [1]: 294 mg | Proto IX Mean Cps per gram, Intestine [1]: 5565 Cps per gram × 10^3

CC(C)Oc1cc(-n2c(=O)n3n(c2=S)CCCC3)c(F)cc1Cl [Agent 6e]
concentration of Proto IX in tissue, Adrenal [1]: 12 ug of Proto IX per gram of tis | concentration of Proto IX in tissue, Intestine [1]: 19 ug of Proto IX per gram of tis | concentration of Proto IX in tissue, Kidneys [1]: 8 ug of Proto IX per gram of tis | concentration of Proto IX in tissue, Liver [1]: 8 ug of Proto IX per gram of tis | concentration of Proto IX in tissue, Tumor [1]: 8 ug of Proto IX per gram of tis | Proto IX Mean Cps per gram, Adrenal [1]: 1331 Cps per gram × 10^3 | Proto IX Mean Cps per gram, Kidneys [1]: 915 Cps per gram × 10^3 | Proto IX Mean Cps per gram, Liver [1]: 876 Cps per gram × 10^3 | Proto IX Mean Cps per gram, Tumor [1]: 837 Cps per gram × 10^3 | Weight of Tumor as excised [1]: 165 mg | Proto IX Mean Cps per gram, Intestine [1]: 2069 Cps per gram × 10^3

NCC(=O)CCC(=O)O [Agent A, 5-amino levulinic acid, reference compound]
Amount of Proto IX (HeLa cells [2]; 5000 μM agent): 4.2 pmol | Fluorescence Emission cps 400/630 (HeLa cells [2]; 5000 μM agent): 41842 cps

C#CCN1C(=O)COc2cc(F)c(-n3ncc(=O)n(C)c3=O)cc21 [Agent D]
Amount of Proto IX (HeLa cells [2]; 100 μM agent): 1.1 pmol | Fluorescence Emission cps 400/630 (HeLa cells [2]; 100 μM agent): 10551 cps

Cn1c(=O)cnn(-c2ccc(Cl)cc2F)c1=O [Agent E]
Amount of Proto IX (HeLa cells [2]; 100 μM agent): 0.9 pmol | Fluorescence Emission cps 400/630 (HeLa cells [2]; 100 μM agent): 8967 cps

CC(C)Oc1cc(-n2nc(C(C)(C)C)oc2=O)c(Cl)cc1Cl [Agent F]
Amount of Proto IX (HeLa cells [3]; average amount per 10^6 cells): 2.71 pmol | inhibition at 100 µM (HeLa cells [3]; Homo sapiens, HeLa, 96 h, 4 days in the dark): 106%

C#CCOc1cc(N2C(=O)C(C)=C(C)C2=O)c(F)cc1Cl [Compound 8ab]
effect on cell growth (rough observations) (HeLa cells [4]): lethal

C#CCOc1cc(N2C(=O)C3CCCCC3C2=O)c(F)cc1Cl (stereo not drawn) [Compound 8ac]
inhibition at 100 µM (HeLa cells [4]): 50%

Cc1nc2ccccc2n1Cc1c(F)c(F)c(F)c(F)c1F [Compound 8ad]
effect on cell growth (rough observations) (HeLa cells [4]): lethal

CC1(C)Cc2c(Br)ccc(OC(=O)N3CCCC3)c2O1 [Compound 8ae]
effect on cell growth (rough observations) (HeLa cells [4]): lethal

CCS(=O)(=O)Nc1cc(-n2nnn(-c3ccc([N+](=O)[O-])cc3)c2=O)c(F)cc1Cl [Compound 8af]
effect on cell growth (rough observations) (HeLa cells [4]): lethal

CCOC(=O)C(C)Oc1ccc(Cn2c(C)nn(-c3cc(OC)c(Cl)cc3F)c2=O)cc1 (stereo not drawn) [Compound 8ag]
inhibition at 100 µM (HeLa cells [4]): 25%

C#CCOc1cc(N=C2SCC(=O)N2C)c(F)cc1Cl [Compound 8ah]
effect on cell growth (rough observations) (HeLa cells [4]): lethal

CC(C)Oc1cc(-n2oc(=O)n(C)c2=O)c(F)cc1Cl [Compound 8ai]
inhibition at 100 µM (HeLa cells [4]): 50%

COc1ccc(OC)c(CNC(=O)c2ccc(Cl)cc2)c1 [Compound 8aj]
inhibition at 100 µM (HeLa cells [4]): 25%

O=C(Nc1ccc(Cl)cc1)C(F)(F)Sc1ccccc1 [Compound 8ak]
inhibition at 100 µM (HeLa cells [4]): 50%

CCOC(=O)C(C)OC(=O)c1cc(Oc2ccc(C(F)(F)F)cc2Cl)ccc1[N+](=O)[O-] (stereo not drawn) [Compound 8an]
inhibition at 100 µM (HeLa cells [4]): 50%

COC(=O)c1cc(Oc2ccc(Cl)cc2Cl)ccc1[N+](=O)[O-] [Compound 8ap]
inhibition at 100 µM (HeLa cells [4]): 50%

O=[N+]([O-])c1ccc(Oc2ccc(Cl)cc2Cl)cc1 [Compound 8ar]
inhibition at 100 µM (HeLa cells [4]): 25%

C#CCOc1cc(-n2ncc(=O)n(C)c2=O)c(F)cc1Cl [Compound 8t]
inhibition at 100 µM (HeLa cells [4]): 50%

C#CCOc1cc(N2N=CCN(C)C2=O)c(F)cc1Cl [Compound 8u]
inhibition at 100 µM (HeLa cells [4]): 60%
